How the values were obtained:
Format in all cases: functional
[1] = tested on: A498; experiment: Growth inhibition of human A498 cells incubated for 48 hrs by sulforhodamine B assay; conditions: A498, 48 h; for CC50: read-out: LC50 (the source's name)
[2] = tested on: OVCAR-4; experiment: Growth inhibition of human OVCAR4 cells incubated for 48 hrs by sulforhodamine B assay; conditions: OVCAR-4, 48 h; for CC50: read-out: LC50 (the source's name)
[3] = tested on: HCC 2998; experiment: Growth inhibition of human HCC2998 cells incubated for 48 hrs by sulforhodamine B assay; conditions: HCC 2998, 48 h; for CC50: read-out: LC50 (the source's name)
[4] = tested on: SK-OV-3; experiment: Growth inhibition of human SKOV3 cells assessed as cell growth at 0.03 uM incubated for 48 hrs by sulforhodamine B assay relative to control; conditions: SK-OV-3, 48 h, read-out: Activity
[5] = tested on: CAKI-1; experiment: Growth inhibition of human Caki1 cells assessed as cell growth at 0.03 uM incubated for 48 hrs by sulforhodamine B assay relative to control; conditions: CAKI-1, 48 h, read-out: Activity
[6] = tested on: NCI-H23; experiment: Growth inhibition of human NCI-H23 cells incubated for 48 hrs by sulforhodamine B assay; conditions: NCI-H23, 48 h; for CC50: read-out: LC50 (the source's name)
[7] = tested on: SK-MEL-28; experiment: Growth inhibition of human SK-MEL-28 cells incubated for 48 hrs by sulforhodamine B assay; conditions: SK-MEL-28, 48 h; for CC50: read-out: LC50 (the source's name)
[8] = tested on: UACC-62; experiment: Growth inhibition of human UACC62 cells incubated for 48 hrs by sulforhodamine B assay; conditions: UACC-62, 48 h; for CC50: read-out: LC50 (the source's name)
[9] = tested on: U-251; experiment: Growth inhibition of human U251 cells assessed as cell growth at 3 uM incubated for 48 hrs by sulforhodamine B assay relative to control; conditions: U-251, 48 h, read-out: Activity
[10] = tested on: COLO 205; experiment: Growth inhibition of human COLO205 cells incubated for 48 hrs by sulforhodamine B assay; conditions: COLO 205, 48 h; for CC50: read-out: LC50 (the source's name)
[11] = tested on: NCI/ADR-RES; experiment: Growth inhibition of human NCI/ADR-RES cells incubated for 48 hrs by sulforhodamine B assay; conditions: for CC50: read-out: LC50 (the source's name)
[12] = tested on: OVCAR-8; experiment: Growth inhibition of human OVCAR8 cells incubated for 48 hrs by sulforhodamine B assay; conditions: OVCAR-8, 48 h; for CC50: read-out: LC50 (the source's name)
[13] = tested on: HOP-92; experiment: Growth inhibition of human HOP92 cells incubated for 48 hrs by sulforhodamine B assay; conditions: HOP-92, 48 h
[14] = tested on: NCI-H23; experiment: Growth inhibition of human NCI-H23 cells assessed as cell growth at 30 uM incubated for 48 hrs by sulforhodamine B assay relative to control; conditions: NCI-H23, 48 h, read-out: Activity
[15] = tested on: A549; experiment: Growth inhibition of human A549/ATCC cells assessed as cell growth at 0.3 uM incubated for 48 hrs by sulforhodamine B assay relative to control; conditions: A549, 48 h, read-out: Activity
[16] = tested on: SK-MEL-2; experiment: Growth inhibition of human SK-MEL-2 cells incubated for 48 hrs by sulforhodamine B assay; conditions: SK-MEL-2, 48 h; for CC50: read-out: LC50 (the source's name)
[17] = tested on: Hs-578T; experiment: Growth inhibition of human Hs 578T cells incubated for 48 hrs by sulforhodamine B assay; conditions: for CC50: read-out: LC50 (the source's name)
[18] = tested on: MDA-MB-231; experiment: Growth inhibition of human MDA-MB-231 cells incubated for 48 hrs by sulforhodamine B assay; conditions: MDA-MB-231, 48 h; for CC50: read-out: LC50 (the source's name)
[19] = tested on: NCI-H226; experiment: Growth inhibition of human NCI-H226 cells incubated for 48 hrs by sulforhodamine B assay; conditions: NCI-H226, 48 h; for CC50: read-out: LC50 (the source's name)
[20] = tested on: SR; experiment: Growth inhibition of human SR cells incubated for 48 hrs by sulforhodamine B assay; conditions: for CC50: read-out: LC50 (the source's name)
[21] = tested on: ACHN; experiment: Growth inhibition of human ACHN cells incubated for 48 hrs by sulforhodamine B assay; conditions: for CC50: read-out: LC50 (the source's name)
[22] = tested on: T47D; experiment: Growth inhibition of human T47D cells incubated for 48 hrs by sulforhodamine B assay; conditions: for CC50: read-out: LC50 (the source's name)
[23] = tested on: UO-31; experiment: Growth inhibition of human UO31 cells incubated for 48 hrs by sulforhodamine B assay; conditions: UO-31, 48 h; for CC50: read-out: LC50 (the source's name)
[24] = tested on: HCT-116; experiment: Growth inhibition of human HCT116 cells incubated for 48 hrs by sulforhodamine B assay; conditions: HCT-116, 48 h
[25] = tested on: MOLT-4; experiment: Growth inhibition of human MOLT4 cells incubated for 48 hrs by sulforhodamine B assay; conditions: MOLT-4, 48 h
[26] = tested on: NCI-H322M; experiment: Growth inhibition of human NCI-H322M cells incubated for 48 hrs by sulforhodamine B assay; conditions: for CC50: read-out: LC50 (the source's name)
[27] = tested on: SR; experiment: Growth inhibition of human SR cells assessed as cell growth at 30 uM incubated for 48 hrs by sulforhodamine B assay relative to control; conditions: read-out: Activity
[28] = tested on: NCI/ADR-RES; experiment: Growth inhibition of human NCI/ADR-RES cells assessed as cell growth at 0.3 uM incubated for 48 hrs by sulforhodamine B assay relative to control; conditions: read-out: Activity

Molecule `COc1cc2cc(Oc3ccc(NC(=O)Nc4ccc(Cl)c(C(F)(F)F)c4)cc3)c(C)nc2cc1OC` has a GI50 [1] of 0.754 µM, a TGI [1] of 3.32 µM and a CC50 [1] of 10.7 µM. It also gave a GI50 [2] of 1.37 µM, a TGI [2] of 6.1 µM and a CC50 [2] of 23.5 µM. It also gave a GI50 [3] of 1.77 µM, a TGI [3] of 5.48 µM and a CC50 [3] of 13.6 µM. For the same molecule, the growth at 0.03 µM [4] was 100%, the growth at 0.03 µM [5] was 96% and the GI50 [6] was 0.991 µM. It also gave a TGI [6] of 3.79 µM, a CC50 [6] of 15.8 µM and a GI50 [7] of 1.41 µM. It also gave a TGI [7] of 5.45 µM, a CC50 [7] of 14.4 µM and a GI50 [8] of 1.24 µM. For the same molecule, the TGI [8] was 6.01 µM, the CC50 [8] was 18.4 µM and the growth at 3 µM [9] was 6%. The GI50 [10] was 0.66 µM, the TGI [10] was 1.31 µM and the CC50 [10] was 2.59 µM. For the same molecule, the GI50 [11] was 1.06 µM, the TGI [11] was 4.91 µM and the CC50 [11] was greater than 32.5 µM. It also gave a GI50 [12] of 1.04 µM, a TGI [12] of 4.55 µM and a CC50 [12] greater than 32.5 µM. For the same molecule, the GI50 [13] was 0.682 µM, the LC50 [13] was 10.3 µM and the TGI [13] was 2.05 µM. It also gave a growth at 30 µM [14] of -75%, a growth at 0.3 µM [15] of 89% and a GI50 [16] of 0.799 to 0.8 µM. It also gave a TGI [16] of 1.94 µM, a CC50 [16] of 11 µM and a GI50 [17] of 0.72 µM. For the same molecule, the TGI [17] was 2.31 µM, the CC50 [17] was 27.4 µM and the GI50 [18] was 0.681 µM. It also gave a TGI [18] of 1.84 µM, a CC50 [18] of 9.6 µM and a GI50 [19] of 1.27 µM. The TGI [19] was 5.01 µM, the CC50 [19] was greater than 32.5 µM and the GI50 [20] was 0.831 µM. It also gave a TGI [20] of 2.65 µM, a CC50 [20] greater than 32.5 µM and a GI50 [21] of 1.07 µM. For the same molecule, the TGI [21] was 4 µM, the CC50 [21] was 13.7 µM and the GI50 [22] was 1.21 µM. It also gave a TGI [22] of 7.9 µM, a CC50 [22] greater than 32.5 µM and a GI50 [23] of 0.924 µM. For the same molecule, the TGI [23] was 2.38 µM, the CC50 [23] was 13.4 µM and the GI50 [24] was 0.994 µM. It also gave an LC50 (50% lethal concentration) [24] of 14 µM, a TGI [24] of 3.84 µM and a GI50 [25] of 1.14 µM. It also gave an LC50 [25] greater than 32.5 µM, a TGI [25] of 5.49 µM and a GI50 [26] of 2.05 µM. The TGI [26] was 6.28 µM, the CC50 [26] was 16.3 µM and the growth at 30 µM [27] was -43%. The growth at 0.3 µM [28] was 94%.

For `Cc1nc2cc(O)c(O)cc2cc1Oc1ccc(NC(=O)Nc2ccc(Cl)c(Cl)c2)cc1`, the GI50 [1] was greater than 32.5 µM, the TGI [1] was greater than 32.5 µM and the CC50 [1] was greater than 32.5 µM. It also gave a GI50 [2] of 9.73 µM, a TGI [2] greater than 32.5 µM and a CC50 [2] greater than 32.5 µM. For the same molecule, the GI50 [3] was 6.7 µM, the TGI [3] was 14.6 µM and the CC50 [3] was 32 µM. The growth at 0.03 µM [4] was 102%, the growth at 0.03 µM [5] was 94% and the GI50 [6] was 6.97 µM. It also gave a TGI [6] of 19.6 µM, a CC50 [6] greater than 32.5 µM and a GI50 [7] of 9 µM. The TGI [7] was 30.1 µM, the CC50 [7] was greater than 32.5 µM and the GI50 [8] was 5.67 µM. The TGI [8] was 11.2 µM, the CC50 [8] was 22.1 µM and the growth at 3 µM [9] was 71%. It also gave a GI50 [10] of 10.3 µM, a TGI [10] greater than 32.5 µM and a CC50 [10] greater than 32.5 µM. The GI50 [11] was 8.74 µM, the TGI [11] was greater than 32.5 µM and the CC50 [11] was greater than 32.5 µM. It also gave a GI50 [12] of 5.77 µM, a TGI [12] greater than 32.5 µM and a CC50 [12] greater than 32.5 µM. It also gave a GI50 [13] of 2.85 µM, an LC50 [13] greater than 32.5 µM and a TGI [13] of 16.7 µM. For the same molecule, the growth at 30 µM [14] was -25%, the growth at 0.3 µM [15] was 96% and the GI50 [16] was 8.83 µM. It also gave a TGI [16] of 21.1 µM, a CC50 [16] greater than 32.5 µM and a GI50 [17] of 12.8 µM. The TGI [17] was greater than 32.5 µM, the CC50 [17] was greater than 32.5 µM and the GI50 [18] was 2.49 µM. The TGI [18] was greater than 32.5 µM, the CC50 [18] was greater than 32.5 µM and the GI50 [19] was 11.8 µM. The TGI [19] was greater than 32.5 µM, the CC50 [19] was greater than 32.5 µM and the GI50 [20] was 1.56 µM. For the same molecule, the TGI [20] was 12.3 µM, the CC50 [20] was greater than 32.5 µM and the GI50 [21] was 3.37 µM. For the same molecule, the TGI [21] was 17.9 µM, the CC50 [21] was greater than 32.5 µM and the GI50 [22] was 11.6 µM. For the same molecule, the TGI [22] was greater than 32.5 µM, the CC50 [22] was greater than 32.5 µM and the GI50 [23] was 6.97 µM. The TGI [23] was 14.9 µM, the CC50 [23] was 31.9 µM and the GI50 [24] was 2.24 µM. For the same molecule, the LC50 (50% lethal concentration) [24] was greater than 32.5 µM, the TGI [24] was 13.6 µM and the GI50 [25] was 8.87 µM. The LC50 [25] was greater than 32.5 µM, the TGI [25] was greater than 32.5 µM and the GI50 [26] was 14.1 µM. For the same molecule, the TGI [26] was greater than 32.5 µM, the CC50 [26] was greater than 32.5 µM and the growth at 30 µM [27] was -20%. For the same molecule, the growth at 0.3 µM [28] was 97%.
